The source of these data is patent publication US20040014144A1, “Method of screening for substances acting on MSK1” (Leo Pharmaceutical Products Ltd. A/S, priority 1999, published 2004).

For one test, the system named is TNF-α secretion in PBMC. The test can be described thus: LPS induced secretion of TNF-α in PBMC, enzyme immuno assay. Type of test: cell-based, human. To be noted: for inhibition of secretion of TNF-α: 30 min preincubation, 1 μg/ml LPS 18 hours. As to the method: (§1) The mononuclear cells (PBMC) were isolated from human peripheral blood by Lymphoprep® fractionation (Nycomed, Norway) and the THP-1 cells were obtained from the American Type Culture Collection (Accession No. TIB-202). Both cell lines were suspended in RPMI 1640 with 2% fetal calf serum (FCS), 2 mM L-glutamine, 100 U/ml penicillin and […] streptomycin. […] Louis, Mo., USA). […] The levels of IL-1β and TNF-α were measured in the culture supernatant by enzyme immuno assays (monoclonal antibodies were obtained from R & D Systems, Abingdon, UK).

A further test deals with IL-1β secretion in PBMC. Description: LPS induced secretion of IL-1β in PBMC, enzyme immuno assay. Particulars: for inhibition of secretion of IL-1β: 30 min preincubation, 1 μg/ml LPS 18 hours. The class given is cell-based, human. On the procedure:
as §1

Test [1] deals with TNF-α secretion in THP-1 cells. The test can be described thus: LPS induced secretion of TNF-α in THP-1 cells, enzyme immuno assay. Type of test: cell-based, human. Particulars: for inhibition of secretion of TNF-α: THP-1 cells, 1 μM of each compound, 60 min preincubation, 1 μg/ml LPS 5 hours. On the procedure:
as §1

Test [2] relates to NFκB transcriptional activity in THP-1 cells. Description: NFκB-luciferase reporter gene assay in LPS stimulated THP-1 cells. To be noted: for reporter gene (luciferase) activity, % of the control value: THP-1 cells transfected with pBIIX, 1 μM of each compound, 1 hour pretreatment, 1 μg/ml LPS 5 h. Type of test: cell-based, human. As to the method: All transfections were performed in triplicate.

In test [3] the test system is THP-1 or peripheral blood mononuclear cells (PBMC). Description: LPS induced secretion of TNF-α and IL-1β in THP-1 or PBMC (summary statement). Type of test: cell-based, human. On the procedure:
as §1

The target of another test is MSK1 (Homo sapiens, UniProt O75582). To be noted: from reference (5); cited from earlier work.
Chain of MSK1 (O75582 whole entry): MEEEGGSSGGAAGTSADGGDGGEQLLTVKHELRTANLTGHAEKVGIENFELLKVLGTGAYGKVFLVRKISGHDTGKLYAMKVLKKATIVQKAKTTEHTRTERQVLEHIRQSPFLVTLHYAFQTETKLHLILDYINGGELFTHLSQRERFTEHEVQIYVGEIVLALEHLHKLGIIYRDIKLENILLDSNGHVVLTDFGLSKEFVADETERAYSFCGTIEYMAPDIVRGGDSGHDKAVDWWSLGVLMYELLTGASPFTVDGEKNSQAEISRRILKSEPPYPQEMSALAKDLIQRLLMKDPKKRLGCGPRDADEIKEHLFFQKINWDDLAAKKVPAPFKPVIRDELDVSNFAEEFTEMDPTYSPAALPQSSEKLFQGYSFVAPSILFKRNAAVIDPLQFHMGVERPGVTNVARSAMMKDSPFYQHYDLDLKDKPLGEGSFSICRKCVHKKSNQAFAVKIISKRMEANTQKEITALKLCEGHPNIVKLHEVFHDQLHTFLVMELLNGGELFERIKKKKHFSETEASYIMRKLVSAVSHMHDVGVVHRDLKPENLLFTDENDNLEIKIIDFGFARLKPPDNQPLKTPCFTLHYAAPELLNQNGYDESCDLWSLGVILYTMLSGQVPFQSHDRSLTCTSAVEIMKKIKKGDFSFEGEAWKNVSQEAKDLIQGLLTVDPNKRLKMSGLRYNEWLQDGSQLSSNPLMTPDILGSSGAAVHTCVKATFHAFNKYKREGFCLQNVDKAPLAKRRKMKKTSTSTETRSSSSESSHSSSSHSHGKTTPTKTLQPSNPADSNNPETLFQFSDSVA

Broadly, the inhibition is the change of the read-out against control, counted positive when it falls.

`C[S+]([O-])c1ccc(-c2nc(-c3ccncc3)c(-c3ccc(F)cc3)[nH]2)cc1` (stereo not drawn) [SB203580]: the inhibition at 1 µM in the test on TNF-α secretion in PBMC (Homo sapiens, read-out: inhibition of secretion of TNF-α) was 40 to 60%; in the test on IL-1β secretion in PBMC (Homo sapiens, read-out: inhibition of secretion of IL-1β), 40 to 60%; in test [1] (Homo sapiens, THP-1, read-out: inhibition of secretion of TNF-α), 30%. Besides, the “reporter gene (luciferase) activity, % of the control value” (shortened to “reporter gene (luciferase) activity, %”) in test [2] is given as 49%.

Regarding `Cn1cc(C2=C(c3cn(CCCSC(=N)N)c4ccccc34)C(=O)NC2=O)c2ccccc21` [Ro318220], the “inhibition of secretion of TNF-α” value in the test with TNF-α secretion in PBMC (1 μM compound) is “approximately 90%”; in test [1], 50%. Moreover, the “inhibition of secretion of IL-1β” value in the test with IL-1β secretion in PBMC (1 μM compound) was “approximately 90%”. In test [2], the “reporter gene (luciferase) activity, %” value is reported as 15%. Besides, the “LPS induced NFκB transcriptional activity” value in test [2] (THP-1 cells, summary statement) was “strongly inhibited”. The “LPS induced secretion of TNF-α and IL-1β” value in test [3] is recorded as “strongly inhibited”. Further, the “inhibition of MSK1 activity in vitro” value on MSK1 is on record as “potent inhibitor”.

With `COc1cccc(-c2cc(=O)c3ccccc3o2)c1N` [PD98059], the “inhibition of secretion of TNF-α” value with TNF-α secretion in PBMC (10 μM compound) was “about 40%”; in test [1] it was 5%. Also, the “inhibition of secretion of IL-1β” value in the test on IL-1β secretion in PBMC (10 μM compound) is given as “about 40%”. Besides, the “reporter gene (luciferase) activity, %” value in test [2] is reported as “no effect”.
